US20250034216A1, “STEREOSELECTIVE COVALENT LIGANDS FOR ONCOGENIC AND IMMUNOLOGICAL PROTEINS” (The Scripps Research Institute, priority 2021, published 2025)

Key:
[1] = system: SIINFEKL presentation in E.G7-Ova cells; assay: FACS analysis with citric acid wash; assay type: cell-based, mouse; details: 4 h treatment, recovery up to 4 h
Description: E.G7-Ova cells (2 million/mL) were treated with compounds for 4 hours, washed with PBS, and then washed with 1 mL of 131 mM citric acid for 2 minutes, quenched with 1 mL 66 mM NaH2PO4, and then washed with PBS 3 times. Cells were then resuspended in warm RPMI and allowed to recover for the indicated period, after which cells were washed with PBS and transferred to 96 well plates for staining. Each well was washed with 200 μL PBS, and then stained for 20 minutes with 50 μL of staining solution: 1:1000 fixable near-IR LIVE/DEAD stain (Invitrogen) and 1:200 dilution of anti-SIINFEKL (BioLegend) or anti-Kb (BioLegend) antibody in FACS buffer (2% FBS in PBS supplemented with PenStrep and sterile filtered). Additional wells were used as unstained or singly-stained controls. After staining, cells were washed with PBS, then fixed in 200 μL 4% paraformaldehyde in PBS for 15 minutes. Cells were resuspended in 75 μL FACS buffer and analyzed on a Novocyte flow cytometer. The corresponding data in FIG. 2J are presented as the average percentage of median fluorescence intensity relative to DMSO treated control±SD from n=4 replicates. The corresponding data in FIG. 2K are presented as the average percentage of MFI relative to DMSO treated control±SD from n=3 replicates. Statistical analysis was performed using GraphPad PRISM Version 9.0.0.

PHF5A_C26 = biological target: T1, PHF5A_C26 (Homo sapiens, UniProt O75533+Q7RTV0); assay: IA-DTB cysteine reactivity profiling; assay type: binding
T1 construct: endogenous in cells
Description: Sample preparation: Cells (adherent: 15 cm dishes, suspension: 2 million cells/mL) were treated with electrophilic probes in situ for indicated times and concentrations, washed with ice-cold PBS, and flash frozen in liquid nitrogen. Cell pellets were lysed by sonication (8 pulses, 40% power) in 500 μL ice-cold PBS supplemented with cOmplete protease inhibitors (1 tablet/10 mL of PBS). Whole cell lysates protein content was measured using a standard DC protein assay (Bio-Rad) and 500 μL (2 mg/mL protein content) were treated with 5 μL of 10 mM 1A-DTB (in DMSO) for 1 h at ambient temperature with occasional vortexing. Samples were methanol-chloroform precipitated with the addition of 500 μL ice-cold MeOH and 200 μL CHCl3, vortexed, and centrifuged (10 min, 10,000 g). Without disrupting the protein disk, both top and bottom layers were aspirated and the protein disk was washed with 1 mL ice-cold MeOH and centrifuged (10 min, 10,000 g). The pellets were allowed to air dry, and then re-suspended in 90 μL buffer (9 M urea, 10 mM DTT, 50 mM TEAB pH 8.5). […]
Data processing: Cysteine engagement ratios (probe vs DMSO) were calculated for each peptide-spectra match by dividing each TMT reporter ion intensity by the average intensity for the channels corresponding to DMSO treatment. […]

T1 sequence (Q7RTV0 whole entry): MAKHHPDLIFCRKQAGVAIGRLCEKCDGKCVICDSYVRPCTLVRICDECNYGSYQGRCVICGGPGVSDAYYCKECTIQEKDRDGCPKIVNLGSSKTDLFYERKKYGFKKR
T1 sequence (O75533 whole entry): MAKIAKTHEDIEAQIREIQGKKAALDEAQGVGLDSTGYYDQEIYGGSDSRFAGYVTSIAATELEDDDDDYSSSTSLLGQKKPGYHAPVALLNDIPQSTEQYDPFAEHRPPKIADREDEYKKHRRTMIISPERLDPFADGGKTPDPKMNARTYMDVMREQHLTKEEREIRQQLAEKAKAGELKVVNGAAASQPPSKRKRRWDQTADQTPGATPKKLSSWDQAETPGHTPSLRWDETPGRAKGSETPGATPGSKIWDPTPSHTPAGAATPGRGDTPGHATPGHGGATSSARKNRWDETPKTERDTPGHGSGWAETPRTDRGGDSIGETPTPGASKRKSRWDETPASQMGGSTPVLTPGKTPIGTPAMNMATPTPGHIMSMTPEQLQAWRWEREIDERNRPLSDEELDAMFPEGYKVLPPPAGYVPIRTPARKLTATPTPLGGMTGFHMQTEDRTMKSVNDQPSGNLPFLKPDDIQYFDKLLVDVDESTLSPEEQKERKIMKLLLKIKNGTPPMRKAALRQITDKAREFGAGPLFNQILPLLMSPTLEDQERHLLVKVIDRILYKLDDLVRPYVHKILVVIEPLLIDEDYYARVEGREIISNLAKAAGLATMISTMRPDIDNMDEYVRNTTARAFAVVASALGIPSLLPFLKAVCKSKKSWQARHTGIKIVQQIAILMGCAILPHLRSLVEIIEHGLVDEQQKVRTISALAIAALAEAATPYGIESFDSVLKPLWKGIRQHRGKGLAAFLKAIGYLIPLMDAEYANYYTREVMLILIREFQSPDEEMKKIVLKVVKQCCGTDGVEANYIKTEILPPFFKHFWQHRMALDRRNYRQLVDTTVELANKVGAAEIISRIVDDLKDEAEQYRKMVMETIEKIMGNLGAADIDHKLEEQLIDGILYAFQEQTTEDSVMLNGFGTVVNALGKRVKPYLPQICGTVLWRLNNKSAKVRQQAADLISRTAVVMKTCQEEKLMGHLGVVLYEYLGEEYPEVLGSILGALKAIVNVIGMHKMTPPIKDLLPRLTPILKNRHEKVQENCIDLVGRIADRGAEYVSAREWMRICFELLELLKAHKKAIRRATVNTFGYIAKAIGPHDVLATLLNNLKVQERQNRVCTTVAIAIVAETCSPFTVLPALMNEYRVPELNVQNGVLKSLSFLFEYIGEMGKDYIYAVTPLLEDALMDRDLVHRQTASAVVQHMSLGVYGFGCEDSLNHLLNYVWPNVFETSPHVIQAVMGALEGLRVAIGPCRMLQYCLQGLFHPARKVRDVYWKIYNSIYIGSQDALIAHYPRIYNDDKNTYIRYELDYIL
T1 sequence (Q15393 whole entry partner): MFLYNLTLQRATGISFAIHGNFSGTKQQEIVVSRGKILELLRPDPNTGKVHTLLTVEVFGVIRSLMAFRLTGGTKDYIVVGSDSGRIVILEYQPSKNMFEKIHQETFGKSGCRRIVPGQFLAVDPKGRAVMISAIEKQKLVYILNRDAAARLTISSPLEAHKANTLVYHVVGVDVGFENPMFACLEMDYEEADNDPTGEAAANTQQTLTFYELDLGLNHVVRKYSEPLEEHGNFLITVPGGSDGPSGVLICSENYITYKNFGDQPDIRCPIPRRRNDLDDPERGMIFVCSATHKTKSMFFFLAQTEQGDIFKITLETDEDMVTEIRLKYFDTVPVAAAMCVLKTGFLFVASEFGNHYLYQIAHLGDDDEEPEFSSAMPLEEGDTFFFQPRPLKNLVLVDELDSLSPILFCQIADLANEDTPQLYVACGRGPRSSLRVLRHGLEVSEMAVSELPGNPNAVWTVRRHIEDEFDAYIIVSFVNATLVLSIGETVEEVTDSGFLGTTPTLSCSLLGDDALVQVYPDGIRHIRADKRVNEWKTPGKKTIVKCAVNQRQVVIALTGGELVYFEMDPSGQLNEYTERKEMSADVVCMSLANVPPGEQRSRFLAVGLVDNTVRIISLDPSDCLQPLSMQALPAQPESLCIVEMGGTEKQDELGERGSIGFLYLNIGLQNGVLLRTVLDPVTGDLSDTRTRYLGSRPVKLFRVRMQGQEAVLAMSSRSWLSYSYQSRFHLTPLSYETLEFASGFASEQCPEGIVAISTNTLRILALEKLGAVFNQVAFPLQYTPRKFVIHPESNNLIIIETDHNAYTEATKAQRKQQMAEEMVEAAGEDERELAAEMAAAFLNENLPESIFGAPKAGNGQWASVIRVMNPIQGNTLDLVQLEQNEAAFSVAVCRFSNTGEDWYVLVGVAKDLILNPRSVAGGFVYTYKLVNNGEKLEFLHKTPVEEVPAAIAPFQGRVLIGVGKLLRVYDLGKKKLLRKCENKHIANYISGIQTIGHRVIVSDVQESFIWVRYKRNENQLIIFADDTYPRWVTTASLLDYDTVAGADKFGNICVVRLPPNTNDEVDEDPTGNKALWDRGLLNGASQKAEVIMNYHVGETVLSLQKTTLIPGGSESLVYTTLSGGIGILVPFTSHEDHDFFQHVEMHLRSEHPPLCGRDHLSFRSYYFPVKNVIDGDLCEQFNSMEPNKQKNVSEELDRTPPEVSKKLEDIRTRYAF
T1 sequence (Q9BWJ5 whole entry partner): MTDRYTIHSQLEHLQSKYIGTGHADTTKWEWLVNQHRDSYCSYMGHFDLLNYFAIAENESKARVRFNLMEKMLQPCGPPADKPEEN

engagement of PHF5A_C26 (PHF5A_C26)	SMILES	SIINFEKL presentation after acid wash [1]
–	CC#CC(=O)N1C[C@H](c2ccc(Br)cc2)[C@@H]1C(=O)Nc1cccc2cccnc12 [MY-45B, (2R,3S)-3-(4-bromophenyl)-1-(but-2-ynoyl)-N-(quinolin-8-yl)azetidine-2-carboxamide]	time- and concentration-dependent reduction in SIINFEKL presentation
did not engage	C=CC(=O)N1[C@H](c2ccc3c(c2)OCO3)c2[nH]c3ccccc3c2C[C@H]1C(=O)N1CCOCC1 [WX-02-23, 1-((1R,3S)-1-(benzo[d][1,3]dioxol-S-yl)-3-(morpholine-4-carbonyl)-1,3,4,9-tetrahydro-2H-pyrido [3,4-b]indol-2-yl)prop-2-en-1-one]	–
